The values that follow come from PMC7268545, “Development of a QPatch-Automated Electrophysiology Assay for Identifying TMEM16A Small-Molecule Inhibitors” (Assay and Drug Development Technologies, 2020).

Series [1] addresses T1, TMEM16A (Homo sapiens, UniProt Q5XXA6).
T1 construct: expressed in transfected cells; host or cells: HEK293T-derived, doxycycline-inducible
T1 sequence (Q5XXA6 1-986): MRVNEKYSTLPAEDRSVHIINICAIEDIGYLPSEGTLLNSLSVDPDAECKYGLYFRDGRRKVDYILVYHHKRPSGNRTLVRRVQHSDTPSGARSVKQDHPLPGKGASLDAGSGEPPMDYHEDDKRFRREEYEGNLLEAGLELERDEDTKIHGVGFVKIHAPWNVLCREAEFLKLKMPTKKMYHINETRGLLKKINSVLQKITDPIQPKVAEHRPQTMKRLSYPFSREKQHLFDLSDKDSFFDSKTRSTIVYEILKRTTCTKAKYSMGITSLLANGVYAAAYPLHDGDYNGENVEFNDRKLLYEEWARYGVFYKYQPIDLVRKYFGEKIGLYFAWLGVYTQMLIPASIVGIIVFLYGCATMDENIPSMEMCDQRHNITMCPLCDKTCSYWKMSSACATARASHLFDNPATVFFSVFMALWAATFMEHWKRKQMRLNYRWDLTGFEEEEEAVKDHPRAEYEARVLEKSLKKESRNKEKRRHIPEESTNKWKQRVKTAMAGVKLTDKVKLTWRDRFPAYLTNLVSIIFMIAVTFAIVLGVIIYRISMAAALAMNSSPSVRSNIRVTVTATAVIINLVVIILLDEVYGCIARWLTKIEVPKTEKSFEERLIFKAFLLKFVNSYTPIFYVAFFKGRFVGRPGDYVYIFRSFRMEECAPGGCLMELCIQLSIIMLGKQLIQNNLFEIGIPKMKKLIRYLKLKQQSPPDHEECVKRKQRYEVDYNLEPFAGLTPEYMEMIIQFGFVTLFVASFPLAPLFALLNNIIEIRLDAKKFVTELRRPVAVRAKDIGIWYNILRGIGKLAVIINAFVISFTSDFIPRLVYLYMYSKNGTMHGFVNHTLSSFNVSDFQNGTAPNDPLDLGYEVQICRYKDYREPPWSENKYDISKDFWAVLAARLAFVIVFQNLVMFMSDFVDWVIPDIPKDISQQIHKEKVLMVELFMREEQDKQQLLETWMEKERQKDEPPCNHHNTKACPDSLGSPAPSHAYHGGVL
Details: method as in PMID 24642630. Conditions: read-out: reported IC50; cited from earlier work.

The target of series [2] is T2, human ANO1 channel (isoform acd) (Homo sapiens, UniProt Q5XXA6).
T2 construct: host or cells: HEK293T
T2 sequence (Q5XXA6 1-986): T1 sequence (Q5XXA6 1-986)
As to the kind of experiment: QPatch-48 automated whole-cell electrophysiology, cumulative five-concentration single-addition protocol. It counts as cell-based. On the procedure:
HEK293T cells stably expressing the human ANO1 channel (isoform acd) were obtained from Scottish Biomedical. Cells were cultured in Sigma Minimum Essential Media containing 10% heat-inactivated fetal bovine serum, 1% penicillin/streptomycin, 1% glutamine, and […] geneticin. Cells were maintained in a 37°C, 5% CO2 environment. Cells were passaged every 3 days after they had reached ∼70% confluency and were not allowed to reach a density greater than 1–2 × 10^5 cells/cm^2 during routine culture. When subculturing, cells were rinsed once with room temperature 1 × phosphate-buffered saline (PBS; Ca^2+/Mg^2+ free), lifted with TrypLE Express, resuspended in prewarmed growth media, and counted using a hemocytometer. Cells were then plated in T150 flasks at a density of 2.9 × 10^4 cells/cm^2 to be either used in the assay or subcultured 72 h later.
On the day of the experiment, cells plated at a density of 2.9 × 10^4 cells/cm^2 72 h prior should be ∼70%–80% confluent. After cells were rinsed with prewarmed 1 × PBS (Ca^2+/Mg^2+ free), 3 mL of room temperature Detachin solution (Genlantis) was added to the flask and tilted gently two to three times to cover all the cells. Approximately 2 mL of Detachin was aspirated from the flask, leaving 1 mL on the cells, and then placed in the 37°C incubator for 5 min. Once cells had rounded up, the cells were dislodged by tapping the flask gently. The cells were then resuspended in 5 mL of warm serum-free media (EX-CELL ACF CHO Medium; Sigma; supplemented with 4 mM L-glutamine and 10 mM HEPES). A glass Pasteur pipette with a rubber bulb was then used to gently dissociate the cells from one another. Detachin will often leave cells as doublets or clumps, conditions that will disrupt seal formation on the QPatch. The cells were triturated ∼30 times and then, still using the Pasteur pipette, transferred into the QPatch Cell Hotel. This ensures that cells detach from one another leaving a suspension of single cells. A QStirrer was added to the Cell Hotel and the cell suspension was immediately placed on the QPatch device. Cells were utilized within 15 min.
Compounds were reconstituted in dimethyl sulfoxide (DMSO; Sigma) as 10 mM stock solutions. An automated dilution machine set up the microtiter plate (MTP ) by making 1:5 dilutions from a starting concentration of 30 μM. The concentration of DMSO was equal for all concentrations tested. Each MTP contained one row of a negative control (DMSO) and a positive control (benzbromarone). A total of eight compounds were run at a time. All compounds tested were produced in-house.
Whole-cell patch-clamp experiments were performed on a QPatch-48-automated electrophysiology platform (Sophion Biosciences) using the 48-channel, single-hole QPlate (resistance 2.0 ± 0.4 MΩ). The external buffer (in mM) was 140 NaCl, 4 KCl, 2 CaCl2, 1 MgCl2, 10 HEPES, 10 glucose, pH 7.4 (osmolarity = 300), and the internal buffer (in mM) was 110 CsCl, 20 TEA-Cl, 5.374 CaCl2, 1.75 MgCl2, 10 EGTA, 10 HEPES, 4 Na2ATP, pH 7.2 (osmolarity = 310). Cell positioning was set to a 5-s wait time with a positioning pressure of −60 mbar and a positioning time-out of 60 s. Resistance was set to increase 750% to ensure the success of positioning. To obtain a seal, pressure was increased to −70 mbar with an allowed pressure of −130 to −20 mbar and a holding pressure of −20 mbar. The holding potential was set to −70 mV and a 240-s time-out was set. The minimum seal resistance was set to 0.02 GΩ. To go whole cell, five 1-s suction pulses were applied starting at −180 mbar and increasing with −40 mbar increments with a pulse period of 10 s. Suction ramp and voltage zap protocols were kept standard, according to the default HEK cell settings. […] The suction ramp order of use was set to 2 with a ramp amplitude of −450 mbar and a ramp slope of 100 ms/mbar.
Once established in whole-cell configuration, cells are clamped to a holding potential (Vhold) of 0 mV.
(In general: In patch-clamp work, channel activity is measured electrically.)

On the set-up of series [3]: method as in PMID 28493701. Conditions: cited from earlier work.
In series [4] the target is T1, TMEM16A. As to the kind of experiment: fluorescence-based eYFP-quench assay. It counts as cell-based. Conditions: iodide based assay. The source says: This was possibly due to the eYFP assay being iodide based, since it has been reported that the anion passing through the pore has an effect on the open state of the channel.[12] It is also impossible to control the intracellular calcium level in this assay, which could explain the discrepancy in potency.[37] […] There is clearly a need for an automated electrophysiology assay for TMEM16A, whether looking at activators or inhibitors. TMEM16A has proven to be a difficult channel for electrophysiology, owing to its fast rundown, small currents, and the fact that it is a ligand-gated channel. In addition, fluoride, typically used in automated patch-clamp assays to improve seal quality, is known to decrease calcium salt solubility. Therefore, a fluoride-free internal solution is preferable when trying to control for a precise internal calcium concentration.

Setting [5] is: independent experiment 1, block at +100 mV, 250 nM internal free-calcium, read-out: IC50s for independent experiments 1.
Setting [6] is: independent experiment 2, read-out: IC50s for independent experiments 2.
The mark [7] stands for this setting: independent experiment 3, read-out: IC50s for independent experiments 3.
[8] abbreviates: independent experiment 4, read-out: IC50s for independent experiments 4.

Like-named read-outs stand apart in the source and are kept apart here.

Consider `O=C(O)c1cccnc1Nc1cccc(C(F)(F)F)c1` [Niflumic acid], for which the IC50 was 12 µM at TMEM16A [1]; 3.89 ± 0.11 µM in series [2] (full plate format (with rundown), n = 3, read-out: IC50, full plate); 5.29 µM in series [2] (setting [5]); 4.62 µM in series [2] (setting [6]); 8.45 µM in series [2] (setting [7]); 11.1 µM in series [2] (setting [8]). The IC50 in series [2] (independent experiment 5, read-out: IC50s for independent experiments 5) came out at 7.71 µM. Moreover, in series [2] (tail current deactivation), the “effect on deactivation rate” value is listed as “slower deactivation rate”.
In the case of `COc1ccccc1/C=N/NC(=O)COc1ccc(Cl)cc1C` [Ani9], the metabolic stability entry in series [3] is given as “metabolically unstable”.
The molecule `CCc1c(C)nc(SCC(=O)Nc2nc(-c3ccc(OC)cc3)cs2)[nH]c1=O` [T16Ainh-A01] returned a block of current in series [2] (maximum block seen) not above 40%.
Take `N#Cc1c(C(F)(F)F)cc(O)n2c1nc1ccccc12` [1PBC]: the “inhibition in eYFP-quench assay” value against TMEM16A [4] is reported as 40%. For the same molecule, the IC50 in series [2] (setting [5]) was found to be 1.18 µM; in series [2] (setting [6]) it was 0.85 µM; in series [2] (setting [7]) it was 1.1 µM; in series [2] (setting [8]), 1.57 µM. In series [2] (versus reported value, ref 36 (mouse TMEM16A)), the “potency relative to that reported” value is on record as approximately 10 times.
